Assay type in all cases: cell-based
In assay [1] the test system is Staphylococcus aureus, USA 300 wherein ClpP is inactivated. The assay is described as follows: Minimal inhibitory concentration assay. How it is done:
(§1) It is understood, that in various aspects, the MIC is determined by a microbroth dilution method. In a further aspect, the MIC is determined by a microbroth dilution method using Staphylococcus aureus, ATCC 29213. In a still further aspect, the MIC is determined by a microbroth dilution method using Staphylococcus aureus, NRS70. In a yet further aspect, the MIC is determined by a microbroth dilution method using Streptococcus pyogenes, ATCC 700294. In an even further aspect, the MIC is determined by a microbroth dilution method using Streptococcus pneumoniae, DAW27. In a still further aspect, the MIC is determined by a microbroth dilution method using Bacillus subtilis, ATCC 23857. In a yet further aspect, the MIC is determined by a microbroth dilution method using Enterococcus faecalis, ATCC 33186. In an even further aspect, the MIC is determined using Staphylococcus aureus, USA 300. In a still further aspect, the MIC is determined using Streptococcus pneumoniae, R6. In a further aspect, the MIC is determined using Staphylococcus aureus, USA 300 and compared to the MIC determined using Staphylococcus aureus, USA 300 wherein ClpP is inactivated, thus allowing confirmation that killing is via a ClpP-dependent pathway.
(§2) Minimal inhibitory concentrations (“MICs”) were determined using the microbroth dilution method according to Clinical Laboratory Standards Institute (CLSI; National, C.F. C. L. S., Methods for Dilution Antimicrobial Susceptibility Tests for Bacteria Grow aerobically-Seventh Edition: Approved Standard M7-A7, CLSI, Wayne, Pa., USA, 2008) and were read by visual inspection. Two fold serial dilutions of test compound in 100 μL of the appropriate broth media were first prepared in 96-well round bottom microtiter plates (Nalgene Nunc International, Rochester, N.Y., USA). An equivalent volume (100 μL) of bacterial broth inocula containing approximately 10^5 bacterial cfu/mL was added to each well to give final concentrations of test compound starting at 200 μM. The plates were then incubated aerobically at 37° C. All strains were incubated overnight. After incubations, in all cases the MIC was recorded as the lowest concentration of drug that prevented bacterial growth. The bacterial strains for which MIC was determined as described in Table 4.

Assay [2] relates to Staphylococcus aureus, USA 300. The assay is described as follows: Minimal inhibitory concentration assay. The note with it: USA300, read-out: Minimal Inhibitory Concentrations S. aureus USA 300. How it is done:
as §1, §2

For assay [3], the system named is Streptococcus pneumoniae, R6. The assay is described as follows: Minimal inhibitory concentration assay. The note with it: read-out: Minimal Inhibitory Concentrations S. pneumoniae R6. How it is done:
It is understood, that in various aspects, the MIC is determined by a microbroth dilution method. […] In a still further aspect, the MIC is determined by a microbroth dilution method using Staphylococcus aureus, NRS70. […] In an even further aspect, the MIC is determined by a microbroth dilution method using Streptococcus pneumoniae, DAW27. […] In an even further aspect, the MIC is determined using Staphylococcus aureus, USA 300. In a still further aspect, the MIC is determined using Streptococcus pneumoniae, R6. In a further aspect, the MIC is determined using Staphylococcus aureus, USA 300 and compared to the MIC determined using Staphylococcus aureus, USA 300 wherein ClpP is inactivated, thus allowing confirmation that killing is via a ClpP-dependent pathway.
Two fold serial dilutions of test compound in 100 μL of the appropriate broth media were first prepared in 96-well round bottom microtiter plates (Nalgene Nunc International, Rochester, N.Y., USA). […] The plates were then incubated aerobically at 37° C. All strains were incubated overnight. After incubations, in all cases the MIC was recorded as the lowest concentration of drug that prevented bacterial growth. The bacterial strains for which MIC was determined as described in Table 4.

For assay [4], the system named is Streptococcus pyogenes, ATCC 700294. The assay is described as follows: Minimal inhibitory concentration assay (microbroth dilution). How it is done: as §1
Minimal inhibitory concentrations (“MICs”) were determined using the microbroth dilution method according to Clinical Laboratory Standards Institute (CLSI; National, C.F. C. L. S., Methods for Dilution Antimicrobial Susceptibility Tests for Bacteria Grow aerobically-Seventh Edition: Approved Standard M7-A7, CLSI, Wayne, Pa., USA, 2008) and were read by visual inspection. Two fold serial dilutions of test compound in 100 μL of the appropriate broth media were first prepared in 96-well round bottom microtiter plates (Nalgene Nunc International, Rochester, N.Y., USA). […] The plates were then incubated aerobically at 37° C. All strains were incubated overnight. After incubations, in all cases the MIC was recorded as the lowest concentration of drug that prevented bacterial growth. The bacterial strains for which MIC was determined as described in Table 4.

The test system of assay [5] is Staphylococcus aureus, ATCC 29213. Described as above. The note with it: ATCC29213, read-out: Minimal Inhibitory Concentrations S. aureus ATCC 29213. How it is done: as §1, §2
The subject of assay [6] is Bacillus subtilis, ATCC 23857. The description is as above. How it is done:
as §1, §2

For assay [7], the system named is Staphylococcus aureus, NRS70. The assay is described as above. How it is done:
as §1, §2

[8] abbreviates: Streptococcus pyogenes, ATCC700294, read-out: Minimal Inhibitory Concentrations S. pyogenes ATCC 700294.
Where [9] appears, read: Bacillus subtilis, ATCC23857, read-out: Minimal Inhibitory Concentrations B. subtilis ATCC 23857.
The mark [10] stands for this setting: Staphylococcus aureus, NRS70, read-out: Minimal Inhibitory Concentrations S. aureus NRS70.
Setting [11] is: Streptococcus pyogenes, ATCC700294; read-out: Minimal Inhibitory Concentrations S. pyogenes ATCC 700294.
The mark [12] stands for this setting: Bacillus subtilis, ATCC23857; read-out: Minimal Inhibitory Concentrations B. subtilis ATCC 23857.
Where [13] appears, read: Staphylococcus aureus, NRS70; read-out: Minimal Inhibitory Concentrations S. aureus NRS70.

Converted amounts (≈) assume the structure as drawn. Where two headings read alike, the source gives them in different places. *1 amine or outer side, *2 acyl side, *3 side chain or, on linkers, in order; H or OH if unused. Where a SMILES comes first, the peptide text is derived from it. Bridges are numbered along the chain shown (N, C = ends). [ ]: non-standard residue; d: D form. The star is where a group is joined. ξ: configuration not given here. NH(1,3-benzodioxol-5-yl) = c1cc2c(cc1N*)OCO2; Phe(3,5-F2) = N[C@@H](Cc1cc(F)cc(F)c1)C(=O)O; Pro(4R-Me) = C[C@H]1CN[C@H](C(=O)O)C1; X11 = O=C(C1C[C@@H](F)CN1[*:1])[*:2]; X10 = O=C(C1C[C@H](F)CN1[*:1])[*:2]; X9 = CC1(C)CC(C(=O)[*:2])N([*:1])C1; NMeT = CN[C@H](C(=O)O)[C@@H](C)O; NH(4-Me-phenyl) = Cc1ccc(N*)cc1; aThr = C[C@H](O)[C@H](N)C(=O)O; Pip = O=C(O)[C@@H]1CCCCN1; ξPip = O=C(O)C1CCCCN1; CO = O=C([*:1])[*:2]; ξP = O=C(O)C1CCCN1

With `Cc1ccc(NC(=O)N[C@@H](Cc2cc(F)cc(F)c2)C(=O)N[C@H]2COC(=O)C3C[C@H](C)CN3C(=O)[C@H](C)NC(=O)C3CCCCN3C(=O)C3CCCN3C2=O)cc1C` (stereo partly drawn) [Compound 48, (S)-3-(3,5-difluorophenyl)-N-((2S,6S,8aS,14aS,20S,23aS)-2,6-dimethyl-5,8,14,19,23-pentaoxooctadecahydro-1H,5H,14H,19H-pyrido[2,1-i]dipyrrolo[2,1-c:2′,1′-l][1]oxa[4,7,10,13]tetraazacyclohexadecin-20-yl)-2-(3-(3,4-dimethylphenyl)ureido)propanamide], the “Minimal Inhibitory Concentrations S. aureus USA 300 ΔClpP” value in assay [1] is 200 µM. The MIC in assay [2] is 1.6 µM (≈ 1.29 µg/mL); in assay [3], 0.8 µM (≈ 0.646 µg/mL); in assay [4] (setting [8]) it was 3.1 µM (≈ 2.5 µg/mL); in assay [5], 1.6 µM (≈ 1.29 µg/mL); in assay [6] (setting [9]) it was 0.2 µM (≈ 0.162 µg/mL); in assay [7] (setting [10]), 0.4 µM (≈ 0.323 µg/mL).

As for `Cc1ccc(NC(=O)N[C@@H](Cc2cc(F)cc(F)c2)C(=O)N[C@H]2COC(=O)C3CC(C)(C)CN3C(=O)[C@H](C)NC(=O)C3CCCCN3C(=O)C3CCCN3C2=O)cc1` (stereo partly drawn) [Compound 49, (S)-3-(3,5-difluorophenyl)-2-(3-(p-tolyl)ureido)-N-((6S,8aS,14aS,20S,23aS)-2,2,6-trimethyl-5,8,14,19,23-pentaoxooctadecahydro-1H,5H,14H,19H-pyrido[2,1-i]dipyrrolo[2,1-c:2′,1′-l][1]oxa[4,7,10,13]tetraazacyclohexadecin-20-yl)propanamide] ({NH(4-Me-phenyl)-CO}-[Phe(3,5-F2)]S[ξP][ξPip]A[X9]; ester 2-C), in assay [1], the “Minimal Inhibitory Concentrations S. aureus USA 300 ΔClpP” value turned out to be 100 µM. Also, the MIC is 25 µM (≈ 20.2 µg/mL) in assay [2]; 6.3 µM (≈ 5.09 µg/mL) in assay [3]; 25 µM (≈ 20.2 µg/mL) in assay [4] (setting [8]); 12.5 µM (≈ 10.1 µg/mL) in assay [5]; 0.4 µM (≈ 0.323 µg/mL) in assay [6] (setting [9]); 12.5 µM (≈ 10.1 µg/mL) in assay [7] (setting [10]).

Take `Cc1ccc(NC(=O)N[C@@H](Cc2cc(F)cc(F)c2)C(=O)N[C@H]2COC(=O)C3C[C@H](F)CN3C(=O)[C@H](C)NC(=O)C3CCCCN3C(=O)C3CCCN3C2=O)cc1` (stereo partly drawn) [Compound 50, (S)-3-(3,5-difluorophenyl)-N-((2S,6S,8aS,14aS,20S,23aS)-2-fluoro-6-methyl-5,8,14,19,23-pentaoxooctadecahydro-1H,5H,14H,19H-pyrido[2,1-i]dipyrrolo[2,1-c:2′,1′-l][1]oxa[4,7,10,13]tetraazacyclohexadecin-20-yl)-2-(3-(p-tolyl)ureido)propanamide] ({NH(4-Me-phenyl)-CO}-[Phe(3,5-F2)]S[ξP][ξPip]A[X10]; ester 2-C): the “Minimal Inhibitory Concentrations S. aureus USA 300 ΔClpP” value in assay [1] is over 200 µM. The MIC was 3.1 µM (≈ 2.47 µg/mL) in assay [2]; 0.8 µM (≈ 0.638 µg/mL) in assay [3]; 1.6 µM (≈ 1.28 µg/mL) in assay [4] (setting [8]); 3.1 µM (≈ 2.47 µg/mL) in assay [5]; over 200 µM in assay [6] (setting [9]); 1.6 µM (≈ 1.28 µg/mL) in assay [7] (setting [10]).

In the case of `Cc1ccc(NC(=O)N[C@@H](Cc2cc(F)cc(F)c2)C(=O)N[C@H]2COC(=O)C3C[C@@H](F)CN3C(=O)[C@H](C)NC(=O)C3CCCCN3C(=O)C3CCCN3C2=O)cc1` (stereo partly drawn) [Compound 51, (S)-3-(3,5-difluorophenyl)-N-((2R,6S,8aS,14aS,20S,23aS)-2-fluoro-6-methyl-5,8,14,19,23-pentaoxooctadecahydro-1H,5H,14H,19H-pyrido[2,1-i]dipyrrolo[2,1-c:2′,1′-l][1]oxa[4,7,10,13]tetraazacyclohexadecin-20-yl)-2-(3-(p-tolyl)ureido)propanamide] ({NH(4-Me-phenyl)-CO}-[Phe(3,5-F2)]S[ξP][ξPip]A[X11]; ester 2-C), the “Minimal Inhibitory Concentrations S. aureus USA 300 ΔClpP” value in assay [1] was over 200 µM. Besides, the MIC in assay [2] was 12.5 µM (≈ 9.97 µg/mL); in assay [3], 6.3 µM (≈ 5.03 µg/mL); in assay [4] (setting [8]), 12.5 µM (≈ 9.97 µg/mL); in assay [5], 12.5 µM (≈ 9.97 µg/mL); in assay [6] (setting [9]), over 200 µM; in assay [7] (setting [10]), 6.3 µM (≈ 5.03 µg/mL).

As for `C[C@@H]1C[C@H]2C(=O)O[C@@H](C)[C@H](NC(=O)[C@H](Cc3cc(F)cc(F)c3)NC(=O)Nc3ccc4c(c3)OCO4)C(=O)N3CCC[C@H]3C(=O)N(C)[C@@H]([C@@H](C)O)C(=O)N[C@@H](C)C(=O)N2C1` [Compound 197, (S)-2-(3-(benzo[d][1,3]dioxol-5-yl)ureido)-3-(3,5-difluorophenyl)-N-((2R,6S,9S,11aS,17S,18S,20aS)-9-((R)-1-hydroxyethyl)-2,6,10,18-tetramethyl-5,8,11,16,20-pentaoxohexadecahydro-1H,5H,16H-dipyrrolo[2,1-c:2′,1′-l][1]oxa[4,7,10,13]tetraazacyclohexadecin-17-yl)propanamide] ({NH(1,3-benzodioxol-5-yl)-CO}-[Phe(3,5-F2)][aThr]P[NMeT]A[Pro(4R-Me)]; ester 2-C), in assay [1], the “Minimal Inhibitory Concentrations S. aureus USA 300 ΔClpP” value is over 20 µM. Besides, the MIC in assay [2] was 0.078 µM (≈ 0.0657 µg/mL); in assay [3] it was under 0.02 µM; in assay [4] (setting [11]), 0.039 µM (≈ 0.0328 µg/mL); in assay [5], 0.039 µM (≈ 0.0328 µg/mL); in assay [6] (setting [12]), under 0.02 µM; in assay [7] (setting [13]) it was 0.039 µM (≈ 0.0328 µg/mL).

For the compound `C[C@@H]1C[C@H]2C(=O)O[C@@H](C)[C@H](NC(=O)[C@H](Cc3cc(F)cc(F)c3)NC(=O)Nc3ccc4c(c3)OCO4)C(=O)N3CCC[C@H]3C(=O)N3CCCC[C@H]3C(=O)N[C@@H](C)C(=O)N2C1` [Compound 198, (S)-2-(3-(benzo[d][1,3]dioxol-5-yl)ureido)-3-(3,5-difluorophenyl)-N-((2R,6S,8aS,14aS,20S,21S,23aS)-2,6,21-trimethyl-5,8,14,19,23-pentaoxooctadecahydro-1H,5H,14H,19H-pyrido[2,1-i]dipyrrolo[2,1-c:2′,1′-l][1]oxa[4,7,10,13]tetraazacyclohexadecin-20-yl)propanamide] ({NH(1,3-benzodioxol-5-yl)-CO}-[Phe(3,5-F2)][aThr]P[Pip]A[Pro(4R-Me)]; ester 2-C), the “Minimal Inhibitory Concentrations S. aureus USA 300 ΔClpP” value in assay [1] is over 20 µM. The MIC was 0.039 µM (≈ 0.0327 µg/mL) in assay [2]; under 0.02 µM in assay [3]; 0.039 µM (≈ 0.0327 µg/mL) in assay [4] (setting [11]); 0.039 µM (≈ 0.0327 µg/mL) in assay [5]; under 0.02 µM in assay [6] (setting [12]); under 0.02 µM in assay [7] (setting [13]).
